From patent US8153784B2, “Imaging of enzyme activity” (The General Hospital Corporation, priority 2004, dated 2012)
Values joined by “and” are separate entries in the source; they are usually repeats but may differ in a detail not shown here. Equal entries are not always repeated.

How the values were obtained:
MPO [1] = target: T1, MPO (Homo sapiens, UniProt P05164); assay: MR imaging at 1.5 T of substrate solutions with MPO; type: biochemical
T1 construct: purchased BioDesign Inc
Description: (§1) Standard 96-well plates were prepared and imaged on a 1.5 T whole body clinical General Electric Signa MRI scanner utilizing a standard 3 inch surface coil. Inversion recovery sequences were used to measure T1 relaxation and spin echo sequences were utilized to measure T2 relaxation. T2 weighted images were obtained with TR=5000 ms and TE=100 ms with a fast spin echo sequence. T1 weighted images were obtained with spin echo sequences with the following parameters: TR=100, 200, 350, or 500, TE=11. For the Matrigel™ experiments, a relatively T2 weighted image was obtained at TR=300 ms and TE=200 ms. Single-exponential models were used to obtain T1 and T2. The relaxivities were computed by normalizing relaxation rates to the concentration of gadolinium in each sample, obtained by inductive coupled plasma (ICP) analysis performed by Galbraith Laboratories.
Because of the relatively higher relaxivity and relatively faster kinetics with MPO, 5-HT-DOTA was chosen for further evaluation by imaging on a clinical 1.5 T MRI scanner. FIGS. 6A-6F and FIGS. 7A-7F illustrate the relative signal changes for typical T1- and T2-weighted images in aqueous solutions with MPO. […] An approximately 40% signal difference was identified at 1300-2000 U (FIGS. 6C-6D), in keeping with the amount of relaxivity shortening found in the relaxation experiments ˜70%).

MPO [2] = target: T1, MPO; assay: Matrigel tissue model containing MPO, MR imaging at 1.5 T; type: biochemical
Description: as §1
We also designed a tissue model system with Matrigel™ to confirm that the substrates can delineate tissues containing MPO. Substrate was added on top of Matrigel™ containing MPO, and imaged at 1.5 T one hour after sample preparation (to ensure substrate conversion), and at 24 hours after sample preparation. Utilizing this tissue model system, and using glucose/glucose oxidase as the hydrogen peroxide generating system (peroxide is released by neutrophils in vivo), we observed an MPO-specific change in the MR signal (see FIG. 8) that is visible on T1-weighted, T2-weighted, and inversion recovery images, at 1 hour after sample preparation. The changes continued to increase over time, and at 24 hours, there is a 30% increase in the longitudinal relaxation rate (5.3 s^−1 to 6.9 s^−1) and a 20% increase in the transverse relaxation rate (8.8 s^−1 to 10.6 s^−1). […] No such change was identified in control systems where MPO was not present (not shown) or glucose oxidase was not present (see the first cell in FIG. 8).

HRP = target: T2, HRP (Armoracia rusticana, UniProt P00433); assay: HRP effect over T1, well plate with different HRP amounts; type: biochemical, horseradish; settings: for lowest enzyme activity level with detectable decrease in T1 / decrease in T1: 0.5 mM; for T1: C = 0.5 mM
T2 construct: purchased Sigma
T2 sequence (P00433 31-338): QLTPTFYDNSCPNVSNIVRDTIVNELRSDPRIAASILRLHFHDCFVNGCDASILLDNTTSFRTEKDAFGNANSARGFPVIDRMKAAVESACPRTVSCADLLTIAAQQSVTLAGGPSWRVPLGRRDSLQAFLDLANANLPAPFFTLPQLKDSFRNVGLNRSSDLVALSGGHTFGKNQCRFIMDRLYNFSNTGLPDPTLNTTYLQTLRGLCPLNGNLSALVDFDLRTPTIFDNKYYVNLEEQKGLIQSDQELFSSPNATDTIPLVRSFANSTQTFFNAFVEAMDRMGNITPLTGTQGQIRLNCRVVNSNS
Description: MR imaging was performed on a 1.5 T GE Excite whole body MR scanner using a 3 inch surface coil. T1-weighted images were obtained using a spin echo sequence with TR=500 ms, TE=11 ms, NEX=4.
To estimate the detection limit of these sensor substrates, a new well plate layout containing a fixed concentration of 1Gd^3+ (0.5 mM, row b1) and 2Gd^3+ (0.5 mM, row b2) supplemented with different HRP amounts (from left to right: 4, 0.4, 0.04, 0.004 U) was imaged (FIG. 10B). The use of 4 U/mL of enzyme yielded a decrease in T1 by 50 and 25% for compounds 1Gd^3+ and 2Gd^3+, respectively. Detectable decrease could be seen at enzyme specific activity levels as low as 0.04 U/mL. In this case the decrease was measured to be 15% for compound 1Gd^3+ and 12% for compound 2Gd^3+.

[3] = target: T3, horseradish peroxidase (HRP) (Armoracia rusticana, UniProt P00433); assay: HRP-mediated oligomerization of 1Gd^3+ and 2Gd^3+: relaxivity, MALDI-MS; type: biochemical; set-up: purchased Sigma; settings: for increase in relaxivity in the presence of peroxidase: 96-well plate image, 4 units HRP, DPBS; for increase in [r1p]: 0.47T and 40° C.
T3 sequence (P00433 31-338): T2 sequence (P00433 31-338)
Description: Relaxation times at 0.47 T was obtained on a Bruker NMS-120 Minispec spectrometer using an inversion recovery sequence, with a TR=5T1, and 15 TI points evenly spaced up to 5T1.
Relaxation times at 1.5 T was measured on a 1.5 T GE Excite MR scanner utilizing an inversion recovery sequences with TR=2000 ms, TI=50, 75, 100, 150, 200, 250, 300, 350, 400, 500, 625, 750, 1000 ms. A fixed-size region of interest was drawn to obtain the signal intensity of the samples.
The data at 0.47 T and 1.5 T were fitted to the equation Ix=I0*(1−2e^[…]) to obtain T1, where I is the signal obtained at a certain time point TI, with I0 (total signal or magnetization) and T1 being fitted values.
Horseradish peroxidase was purchased from Sigma as a lyophilized powder that was dissolved in PBS buffer (4 mg/mL) and its activity was measured using substantially the same the methods described by Klebanoff, S. J.; Waltersdorph, A. M.; Rosen, H. Meth Enzymol. 1984 Vol. 105, p 399-403.
Oligomerization of compounds 1Gd^3+ and 2Gd^3+ was achieved by incubating the desired solution (0.5 mL) of monomer with an excess of H2O2 3% (2 μL) and HRP (1 μg≈4 Units) for 1 hour at 40° C. Both T1 and T2 were measured at two different field strengths: 0.47T and 1.5T, this last one using a clinical magnet (1.5 T Signa, GE).
The relaxivities of various polymerized products were measured using a minimum of four different gadolinium complex concentrations ranging from 2.5 mM to 0.01 mM. Horseradish peroxidase (HRP) was used in the proof-of-the-principle experiments. As used herein, the descriptors 1Gd^3+ and 2Gd^3+ refer to Gd^3+-chelated compounds 1 and 2, respectively. The synthesis of 1Gd^3+ and 2Gd^3+ are described in the Examples.

[4] = Matrigel/substrate interface, at 24 hours

T1 sequence (P05164 279-745 limits assumed): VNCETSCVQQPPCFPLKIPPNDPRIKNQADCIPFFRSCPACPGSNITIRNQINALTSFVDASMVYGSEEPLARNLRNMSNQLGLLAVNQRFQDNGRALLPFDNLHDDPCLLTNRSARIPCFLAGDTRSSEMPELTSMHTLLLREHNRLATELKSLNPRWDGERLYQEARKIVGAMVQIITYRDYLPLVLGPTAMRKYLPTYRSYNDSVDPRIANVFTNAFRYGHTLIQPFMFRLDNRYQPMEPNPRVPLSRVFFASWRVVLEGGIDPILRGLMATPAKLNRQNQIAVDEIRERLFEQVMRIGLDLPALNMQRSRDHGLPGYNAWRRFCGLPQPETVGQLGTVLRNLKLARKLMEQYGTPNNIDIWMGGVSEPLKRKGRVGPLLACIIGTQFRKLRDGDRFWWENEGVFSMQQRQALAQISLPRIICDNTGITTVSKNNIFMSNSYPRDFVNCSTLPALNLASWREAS
T1 sequence (P05164 165-273 limits assumed): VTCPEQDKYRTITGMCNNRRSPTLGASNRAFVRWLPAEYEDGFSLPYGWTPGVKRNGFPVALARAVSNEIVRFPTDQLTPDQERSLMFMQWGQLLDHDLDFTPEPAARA

Compound | lowest enzyme activity level with detectable decrease in T1 (HRP) [U/mL] | decrease in T1 (HRP; 0.04 U/mL of enzyme) [%] | decrease in T1 (HRP; 4 U/mL of enzyme) [%] | T1 (HRP; HRP 0 U) [ms] | T1 (HRP; HRP 4 10-1 U) [ms] | T1 (HRP; HRP 4 10-2 U) [ms] | T1 (HRP; HRP 4 10-3 U) [ms] | T1 (HRP; HRP 4 U) [ms] | increase in relaxivity in the presence of peroxidase [3] [%] | increase in [r1p] ([3]; HRP) [fold] | further results
CC(C(=O)NCC(=O)NCCc1c[nH]c2ccc(O)cc12)N1CCN(CC(=O)[O-])CCN(CC(=O)[O-])CCN(CC(=O)[O-])CC1.[Gd+3] (centres unmarked) [5-HT-DOTA(Gd), Glycylmethyl DOTA(Gd) 5-Hydroxytryptamide] | – | – | – | – | – | – | – | – | – | – | MPO activity giving visible imaging signal changes (MPO [1]): 250 U and 250-650 U; signal difference between MPO-converted product and substrate solution (MPO [1]; 1300-2000 U): approximately 40%; increase in the longitudinal relaxation rate (MPO [2]; [4]): 30%; increase in the transverse relaxation rate (MPO [2]; [4]): 20%; longitudinal relaxation rate (MPO [2]; at 24 hours): 6.9 s⁻¹; transverse relaxation rate (MPO [2]; at 24 hours): 10.6 s⁻¹; longitudinal relaxation rate (MPO [2]; starting value): 5.3 s⁻¹; transverse relaxation rate (MPO [2]; starting value): 8.8 s⁻¹
O=C([O-])CN(CCN(CC(=O)[O-])CC(=O)NCCc1ccc(O)cc1)CCN(CC(=O)[O-])CC(=O)NCCc1ccc(O)cc1.[Gd+3] [1Gd^3+] | 0.04 | 15 | 50 | 316 | 229 | 274 | 321 | 211 | 70 | 3.7 | increase in relaxivity ([3]; HRP, 1.5T clinical MRI unit at 25°): 1.7 fold
O=C([O-])CN(CCN(CC(=O)[O-])CC(=O)NCCc1c[nH]c2ccc(O)cc12)CCN(CC(=O)[O-])CC(=O)NCCc1c[nH]c2ccc(O)cc12.[Gd+3] [2Gd^3+] | 0.04 | 12 | 25 | 339 | 278 | 303 | 331 | 271 | 30 | 2.4 | increase in relaxivity ([3]; HRP, 1.5T, 25°, concentrations below 0.5 mM used for fitting): 1.4 fold; minimum increase in relaxivity ([3]; HRP, 1.5T, 25°, predicted from the obtained data): ≥ 30%; minimum relaxivity increase ([3]; pH=7.4 (PBS buffer), 0.47T, 'in an embodiment', enzyme not stated): ≥ 40%
